Reference: ChEMBL document CHEMBL4840351 (J Med Chem, 2021)

Legend:
Cytochrome P450 3A4 = Cytochrome P450 3A4 (Homo sapiens, UniProt P08684); assay: Inhibition of CYP3A4T in human liver microsomes using midazolam as substrate incubated for 10 mins in presence of NADPH by LC-MS/MS analysis; assay type: ADME
Cytochrome P450 2C19 = Cytochrome P450 2C19 (Homo sapiens, UniProt P33261); assay: Inhibition of CYP2C19 in human liver microsomes using S-mephenytoin as substrate incubated for 10 mins in presence of NADPH by LC-MS/MS analysis; assay type: ADME
Cytochrome P450 1A2 = Cytochrome P450 1A2 (Homo sapiens, UniProt P05177); assay: Inhibition of CYP1A2 in human liver microsomes using phenacetin as substrate incubated for 10 mins in presence of NADPH by LC-MS/MS analysis; assay type: ADME
[1] = Receptor occupancy at BTK in spleen of ICR mouse at 15 mg/kg, po after 24 hrs by ELISA; assay type: functional
[2] = Drug concentration in ICR mouse plasma at 15 mg/kg, po after 2 hrs; assay type: ADME, organism-based
[3] = Receptor occupancy at BTK in PBMC of ICR mouse at 15 mg/kg, po after 1 hr by ELISA; assay type: functional
[4] = Receptor occupancy at BTK in spleen of ICR mouse at 15 mg/kg, po after 1 hr by ELISA; assay type: functional
[5] = Toxicity in SFP CD-1 mouse assessed as change in animal color at 10 to 1280 mg/kg, po administered for 7 days; assay type: organism-based; conditions: in vivo, 168 h, dose 10-1280 mg/kg, time 7 day
[6] = Toxicity in SFP CD-1 mouse assessed as change in behavior at 10 to 1280 mg/kg, po administered for 7 days; assay type: organism-based; conditions: in vivo, 168 h, dose 10-1280 mg/kg, time 7 day
[7] = AUC in Sprague-Dawley rat at 5 mg/kg, po measured upto 24 hrs by LC/MS/MS analysis; assay type: ADME, organism-based; set-up: route oral, dose 5 mg/kg, time <=24; conditions: in vivo
[8] = Half life in Sprague-Dawley rat at 5 mg/kg, po measured upto 24 hrs by LC/MS/MS analysis; assay type: ADME, organism-based; conditions: in vivo
[9] = Half life in Sprague-Dawley rat at 5 mg/kg, iv measured upto 24 hrs by LC/MS/MS analysis; assay type: ADME, organism-based; conditions: in vivo
[10] = target: Tyrosine-protein kinase BTK (Homo sapiens, UniProt Q06187); assay: Inhibition of full-length N-terminal GST tagged BTK (2 to 659 residues) (unknown origin) expressed in Sf21 insect cells using NH2-ETVYSEVRK-biotin as substrate preincubated for 1 hr followed by ATP addition and measured after 2 hrs by ELISA
[11] = target: T1, Tyrosine-protein kinase ITK/TSK (Homo sapiens, UniProt Q08881); assay: Inhibition of full-length N-terminal GST-tagged ITK (2 to 620 residues) (unknown origin) expressed in Sf21 insect cells using NH2-ETVYSEVRK-biotin as substrate preincubated for 1 hr followed by ATP addition and measured after 2 hrs by ELISA
T1 sequence (Q08881 whole entry): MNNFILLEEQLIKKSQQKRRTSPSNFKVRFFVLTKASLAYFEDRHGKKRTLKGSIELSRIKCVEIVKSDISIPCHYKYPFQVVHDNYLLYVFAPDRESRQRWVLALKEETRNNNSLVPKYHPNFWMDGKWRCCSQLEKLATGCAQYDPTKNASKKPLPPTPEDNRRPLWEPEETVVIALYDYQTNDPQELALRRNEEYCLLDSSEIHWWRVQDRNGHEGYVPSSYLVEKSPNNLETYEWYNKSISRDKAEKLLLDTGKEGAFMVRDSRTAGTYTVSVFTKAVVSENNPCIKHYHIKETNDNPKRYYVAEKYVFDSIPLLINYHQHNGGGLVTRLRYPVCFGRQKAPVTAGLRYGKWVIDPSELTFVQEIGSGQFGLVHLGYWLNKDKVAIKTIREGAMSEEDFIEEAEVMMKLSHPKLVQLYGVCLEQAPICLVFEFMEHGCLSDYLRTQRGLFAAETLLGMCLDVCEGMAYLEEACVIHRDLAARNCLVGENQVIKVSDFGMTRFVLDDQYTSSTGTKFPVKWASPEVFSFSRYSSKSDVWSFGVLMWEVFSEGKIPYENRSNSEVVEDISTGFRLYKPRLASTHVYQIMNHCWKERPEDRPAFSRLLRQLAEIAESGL

[12] = target: Epidermal growth factor receptor (Homo sapiens, UniProt P00533); assay: Inhibition of N-terminal DYKDDDD-tagged EGFR (669 to 1210 residues) (unknown origin) expressed in Sf21 insect cells using NH2-ETVYSEVRK-biotin as substrate preincubated for 1 hr followed by ATP addition and measured after 2 hrs by ELISA
[13] = target: Tyrosine-protein kinase BTK (Homo sapiens, UniProt Q06187, C481S); assay: Inhibition of BTK C481S mutant (unknown origin)
[14] = target: Tyrosine-protein kinase Blk (Homo sapiens, UniProt P51451); assay: Inhibition of BLK (unknown origin) at 1 uM relative to control
[15] = target: Tyrosine-protein kinase Lyn (Homo sapiens, UniProt P07948); assay: Inhibition of LYN (unknown origin)
[16] = target: Tyrosine-protein kinase Fyn (Homo sapiens, UniProt P06241); assay: Inhibition of FYN (unknown origin)
[17] = target: Tyrosine-protein kinase Lck (Homo sapiens, UniProt P06239); assay: Inhibition of LCK (unknown origin)
MOLM-13 = assay: Antiproliferative activity against human MOLM-13 cells assessed as reduction in cell viability incubated for 72 hrs by celltiter-glo assay; conditions: MOLM-13, 72 h
Rec1 = assay: Antiproliferative activity against human REC-1 cells assessed as reduction in cell viability incubated for 72 hrs by celltiter-glo assay; conditions: Rec1, 72 h
SU-DHL-2 = assay: Antiproliferative activity against human SUDHL2 cells assessed as reduction in cell viability incubated for 72 hrs by celltiter-glo assay; conditions: SU-DHL-2, 72 h
TMD8 [18] = assay: Induction of cell cycle arrest in human TMD8 cells assessed as accumulation of cells at G2 phase at 3 nM incubated for 48 hrs by PI staining based flow cytometric analysis (reference value: 4.92 %); assay type: functional
TMD8 [19] = assay: Induction of cell cycle arrest in human TMD8 cells assessed as accumulation of cells at G1 phase at 30 nM incubated for 48 hrs by PI staining based flow cytometric analysis (reference value: 57.66 %); assay type: functional
TMD8 [20] = assay: Induction of cell cycle arrest in human TMD8 cells assessed as accumulation of cells at G2 phase at 300 nM incubated for 48 hrs by PI staining based flow cytometric analysis (reference value: 4.92 %); assay type: functional
TMD8 [21] = assay: Antitumor activity against human TMD8 cells xenografted in CB-17 SCID nude mouse assessed as tumor growth inhibition at 3.75 mg/kg, po bid administered for 21 days; assay type: functional; conditions: 504 h, time 21 day, read-out: TGI

Epidermal growth factor receptor, sequence (P00533 whole entry, the tested form may be a part): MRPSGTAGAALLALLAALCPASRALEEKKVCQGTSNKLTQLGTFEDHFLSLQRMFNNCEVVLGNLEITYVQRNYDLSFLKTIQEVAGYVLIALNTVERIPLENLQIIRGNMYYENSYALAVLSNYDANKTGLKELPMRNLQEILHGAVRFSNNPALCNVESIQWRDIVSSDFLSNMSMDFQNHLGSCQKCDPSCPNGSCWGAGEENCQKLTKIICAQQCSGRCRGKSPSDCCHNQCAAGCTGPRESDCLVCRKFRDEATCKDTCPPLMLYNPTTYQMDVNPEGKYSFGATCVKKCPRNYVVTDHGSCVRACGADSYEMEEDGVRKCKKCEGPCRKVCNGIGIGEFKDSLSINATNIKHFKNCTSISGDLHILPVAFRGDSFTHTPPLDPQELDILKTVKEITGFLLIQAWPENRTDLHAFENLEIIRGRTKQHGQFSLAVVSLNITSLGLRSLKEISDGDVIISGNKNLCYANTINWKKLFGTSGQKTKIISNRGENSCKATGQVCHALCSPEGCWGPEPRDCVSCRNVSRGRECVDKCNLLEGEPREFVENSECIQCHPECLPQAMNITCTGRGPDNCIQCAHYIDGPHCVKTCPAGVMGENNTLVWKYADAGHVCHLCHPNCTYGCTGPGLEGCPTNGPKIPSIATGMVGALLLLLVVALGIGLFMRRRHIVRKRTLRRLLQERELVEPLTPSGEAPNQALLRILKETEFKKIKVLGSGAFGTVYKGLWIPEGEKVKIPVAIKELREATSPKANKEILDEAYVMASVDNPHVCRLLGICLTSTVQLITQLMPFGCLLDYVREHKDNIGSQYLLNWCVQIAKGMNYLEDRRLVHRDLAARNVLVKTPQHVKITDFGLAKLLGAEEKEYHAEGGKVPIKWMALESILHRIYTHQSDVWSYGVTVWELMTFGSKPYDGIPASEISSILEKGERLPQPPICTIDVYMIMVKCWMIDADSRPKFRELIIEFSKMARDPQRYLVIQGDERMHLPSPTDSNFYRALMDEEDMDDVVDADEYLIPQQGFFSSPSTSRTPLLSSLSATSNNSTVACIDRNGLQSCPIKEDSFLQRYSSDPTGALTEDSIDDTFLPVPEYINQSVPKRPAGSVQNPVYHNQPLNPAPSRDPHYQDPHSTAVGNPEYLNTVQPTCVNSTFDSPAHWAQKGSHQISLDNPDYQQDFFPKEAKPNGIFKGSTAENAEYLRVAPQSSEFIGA
Tyrosine-protein kinase Fyn, sequence (P06241 whole entry): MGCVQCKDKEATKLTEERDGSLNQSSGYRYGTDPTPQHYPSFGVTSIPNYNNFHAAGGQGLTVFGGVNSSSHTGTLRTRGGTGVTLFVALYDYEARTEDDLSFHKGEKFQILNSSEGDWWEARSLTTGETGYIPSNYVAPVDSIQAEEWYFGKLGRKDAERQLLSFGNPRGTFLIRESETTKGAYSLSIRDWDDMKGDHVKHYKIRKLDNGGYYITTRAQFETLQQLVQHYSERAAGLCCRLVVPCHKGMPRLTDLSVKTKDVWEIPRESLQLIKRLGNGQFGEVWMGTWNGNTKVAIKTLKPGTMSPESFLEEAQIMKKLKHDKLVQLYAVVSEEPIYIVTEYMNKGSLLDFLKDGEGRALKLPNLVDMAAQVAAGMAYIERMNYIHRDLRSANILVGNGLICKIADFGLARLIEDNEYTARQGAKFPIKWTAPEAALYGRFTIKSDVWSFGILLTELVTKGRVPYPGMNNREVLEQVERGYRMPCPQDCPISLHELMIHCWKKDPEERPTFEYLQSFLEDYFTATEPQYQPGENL
Tyrosine-protein kinase BTK (Homo sapiens, UniProt Q06187, C481S), sequence (Q06187 2-659 C481S limits assumed): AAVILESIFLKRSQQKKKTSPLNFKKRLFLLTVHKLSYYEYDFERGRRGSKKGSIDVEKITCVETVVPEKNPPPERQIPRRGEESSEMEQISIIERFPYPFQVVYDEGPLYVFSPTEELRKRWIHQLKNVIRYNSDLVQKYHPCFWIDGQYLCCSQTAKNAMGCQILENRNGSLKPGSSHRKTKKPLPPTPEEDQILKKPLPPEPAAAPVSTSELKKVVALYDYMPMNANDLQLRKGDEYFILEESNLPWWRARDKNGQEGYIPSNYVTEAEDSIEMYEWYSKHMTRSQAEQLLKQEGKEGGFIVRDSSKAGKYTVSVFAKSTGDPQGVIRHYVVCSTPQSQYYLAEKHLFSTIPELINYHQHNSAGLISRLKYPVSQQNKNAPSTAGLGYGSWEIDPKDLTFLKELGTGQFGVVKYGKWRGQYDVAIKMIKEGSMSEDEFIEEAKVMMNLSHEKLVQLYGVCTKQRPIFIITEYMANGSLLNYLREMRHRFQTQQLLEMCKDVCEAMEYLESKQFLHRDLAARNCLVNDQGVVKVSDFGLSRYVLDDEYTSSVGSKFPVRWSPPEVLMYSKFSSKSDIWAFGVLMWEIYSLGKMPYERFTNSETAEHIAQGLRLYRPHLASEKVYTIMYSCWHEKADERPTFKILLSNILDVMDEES
Tyrosine-protein kinase Lck, sequence (P06239 whole entry): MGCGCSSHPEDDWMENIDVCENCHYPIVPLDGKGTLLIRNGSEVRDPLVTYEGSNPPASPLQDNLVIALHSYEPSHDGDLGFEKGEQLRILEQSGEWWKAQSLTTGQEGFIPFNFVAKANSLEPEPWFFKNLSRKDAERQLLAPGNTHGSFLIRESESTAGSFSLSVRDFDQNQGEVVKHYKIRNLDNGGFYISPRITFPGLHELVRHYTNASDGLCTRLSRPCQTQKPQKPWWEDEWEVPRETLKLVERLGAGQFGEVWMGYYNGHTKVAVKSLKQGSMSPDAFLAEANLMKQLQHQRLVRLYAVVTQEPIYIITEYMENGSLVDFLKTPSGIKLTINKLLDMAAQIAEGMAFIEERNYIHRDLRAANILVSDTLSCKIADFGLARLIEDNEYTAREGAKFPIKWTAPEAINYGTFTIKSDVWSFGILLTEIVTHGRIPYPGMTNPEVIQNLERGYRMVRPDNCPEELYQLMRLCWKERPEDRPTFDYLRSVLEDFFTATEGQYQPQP
Cytochrome P450 3A4, sequence (P08684 whole entry): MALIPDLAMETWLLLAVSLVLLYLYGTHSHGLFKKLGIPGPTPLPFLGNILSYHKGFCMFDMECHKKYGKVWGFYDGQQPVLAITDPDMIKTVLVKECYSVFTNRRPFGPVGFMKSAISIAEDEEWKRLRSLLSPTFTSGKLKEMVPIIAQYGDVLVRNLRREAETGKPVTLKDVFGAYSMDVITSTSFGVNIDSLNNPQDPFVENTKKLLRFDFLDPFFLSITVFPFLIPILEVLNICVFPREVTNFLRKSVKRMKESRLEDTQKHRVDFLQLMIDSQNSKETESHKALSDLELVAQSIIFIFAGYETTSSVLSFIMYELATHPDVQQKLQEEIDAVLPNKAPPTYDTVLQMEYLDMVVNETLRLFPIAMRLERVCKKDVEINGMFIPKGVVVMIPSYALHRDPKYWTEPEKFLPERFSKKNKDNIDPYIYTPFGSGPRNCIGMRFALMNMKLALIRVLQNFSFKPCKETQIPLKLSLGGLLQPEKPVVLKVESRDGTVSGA
Tyrosine-protein kinase Blk, sequence (P51451 2-505 limits assumed): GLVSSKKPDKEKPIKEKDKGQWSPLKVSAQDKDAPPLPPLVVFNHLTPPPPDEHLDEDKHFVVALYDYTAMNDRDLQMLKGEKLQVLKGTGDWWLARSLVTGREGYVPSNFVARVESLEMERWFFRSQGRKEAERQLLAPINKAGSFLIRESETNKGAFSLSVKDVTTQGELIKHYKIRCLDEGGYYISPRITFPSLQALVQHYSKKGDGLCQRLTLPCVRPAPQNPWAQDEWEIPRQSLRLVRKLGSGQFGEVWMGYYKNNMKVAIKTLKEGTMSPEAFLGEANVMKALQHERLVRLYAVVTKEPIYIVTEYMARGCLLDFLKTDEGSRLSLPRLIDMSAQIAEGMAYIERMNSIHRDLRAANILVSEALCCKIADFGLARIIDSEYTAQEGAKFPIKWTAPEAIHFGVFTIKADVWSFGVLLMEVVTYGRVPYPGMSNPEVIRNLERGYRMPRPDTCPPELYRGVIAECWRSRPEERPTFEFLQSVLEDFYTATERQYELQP
Tyrosine-protein kinase Lyn, sequence (P07948 whole entry): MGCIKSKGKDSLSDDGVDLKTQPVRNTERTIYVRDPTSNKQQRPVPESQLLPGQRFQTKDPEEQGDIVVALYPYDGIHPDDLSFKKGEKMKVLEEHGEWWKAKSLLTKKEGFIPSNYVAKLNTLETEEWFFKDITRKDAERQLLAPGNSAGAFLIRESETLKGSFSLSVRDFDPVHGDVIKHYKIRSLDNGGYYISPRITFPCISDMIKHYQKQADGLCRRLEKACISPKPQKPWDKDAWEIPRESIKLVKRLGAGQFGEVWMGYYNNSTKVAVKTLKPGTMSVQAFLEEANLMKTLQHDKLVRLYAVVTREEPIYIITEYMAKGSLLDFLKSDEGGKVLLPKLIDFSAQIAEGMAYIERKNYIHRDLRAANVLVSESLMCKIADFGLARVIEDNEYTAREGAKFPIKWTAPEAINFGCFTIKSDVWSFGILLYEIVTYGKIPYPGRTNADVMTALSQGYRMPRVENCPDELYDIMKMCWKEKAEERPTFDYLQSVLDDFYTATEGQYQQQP
Cytochrome P450 2C19, sequence (P33261 whole entry): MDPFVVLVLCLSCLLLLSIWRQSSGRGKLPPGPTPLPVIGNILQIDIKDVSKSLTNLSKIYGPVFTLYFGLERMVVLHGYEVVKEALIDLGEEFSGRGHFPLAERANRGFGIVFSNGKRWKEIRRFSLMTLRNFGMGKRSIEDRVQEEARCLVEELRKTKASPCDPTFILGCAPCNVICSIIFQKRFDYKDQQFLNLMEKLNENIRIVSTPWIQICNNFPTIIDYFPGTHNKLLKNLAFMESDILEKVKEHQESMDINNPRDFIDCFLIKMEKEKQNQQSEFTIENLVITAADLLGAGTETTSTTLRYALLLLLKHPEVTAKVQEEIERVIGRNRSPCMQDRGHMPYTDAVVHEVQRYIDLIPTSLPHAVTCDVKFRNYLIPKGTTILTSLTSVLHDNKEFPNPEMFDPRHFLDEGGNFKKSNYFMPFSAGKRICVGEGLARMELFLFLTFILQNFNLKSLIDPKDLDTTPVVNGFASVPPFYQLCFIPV

SMILES: C=CC(=O)N1CCCC[C@H]1c1nc(-c2ccc(C(=O)Nc3cc(C(F)(F)F)ccn3)cc2)c(C(N)=O)n1N
- IC50 (Cytochrome P450 3A4): > 10 µM
- IC50 (Cytochrome P450 2C19): > 10 µM
- IC50 (Cytochrome P450 1A2): > 10 µM
- Occ [1]: 58%
- concentration at 2 h [2]: 640 nM
- Occ [3]: 95%
- Occ [4]: 95%
- Activity [5]: Non-Toxic
- Activity [6]: Non-Toxic
- AUC at 24 h [7]: 2000 ng·h/mL
- half-life [8]: 1.35 h
- half-life [9]: 1.32 h
- IC50 [10]: 0.0027 µM
- IC50 [11]: 0.847 µM
- IC50 [12]: 0.433 µM
- IC50 [13]: > 10 µM
- inhibition [14]: > 80%
- inhibition (INH) [15]: Not Active
- inhibition (INH) [16]: Not Active
- inhibition (INH) [17]: Not Active
- IC50 (MOLM-13): 3.7 µM
- IC50 (Rec1): 0.035 µM
- IC50 (SU-DHL-2): 5.5 µM
- Activity (TMD8 [18]): 7.94%
- Activity (TMD8 [19]): 84.36%
- Activity (TMD8 [20]): 3.79%
- inhibition in vivo at 3.75 mg/kg (TMD8 [21]): 81%
